The values that follow come from publication PMC8111447 (Frontiers in Pharmacology, 2021).

Broadly, the IC50 is the concentration that inhibits the measured activity by half. The low end stands for higher potency, the high end for lower potency.

One series relates to EGFR T790M. Further details: method as in Cross et al., 2014. As to conditions: ref Cross et al., 2014; cited from earlier work.
Details of series [1]: method as in earlier work. Particulars: main metabolites of osimertinib, ref Cheng et al., 2016, Dickinson et al., Vishwanathan et al., 2019; cited from earlier work.
The subject of a further series is A431 (EGFR^WT). The series is described as follows: Cell proliferation assay (CTG, 72 h). As to conditions: Homo sapiens, A-431, A431 cells, mean ± SD, n = 3. Type of series: cell-based. On the procedure: (§1) Human lung cancer cell lines (NCI-H1975, H3255 and A431) were obtained from the American Type Culture Collection (ATCC), while PC-9 cell line was supplied by the European Collection of Authenticated Cell Cultures (ECACC). For in vivo implantation, NCI-H1975, H3255 and PC-9 cells were cultured in RPMI1640 (Invitrogen) supplemented with 10% v/v fetal calf serum (Sigma-Aldrich) and 2 mmol/L L-glutamine (Invitrogen). A431 cells were cultured in DMEM (Invitrogen) supplemented with 10% v/v fetal calf serum and 2 mmol/L v/v L-glutamine. All cell lines were then cultured in a humidified incubator with 5% CO2 at 37°C.
(§2) Test compounds were dissolved in DMSO as a 10 mmol/L stock solution. The initial concentration of compounds were 10 μmol/L and the 3-fold dilution was nine times. […] Plate was shaked for 2 min and the mixture was incubated at room temperature for 10 min.
(§3) The half-maximal inhibition concentration (IC50) values were processed by GraphPad Prism7 (GraphPad Software; La Jolla, CA).

Series [2] has as its system NCI-H1975 (EGFR^L858R/T790M). In words: Cell proliferation assay (CTG, 72 h). As to conditions: Homo sapiens, NCI-H1975 cells, mean ± SD, n = 3. Format: cell-based. On the procedure:
as §1, §2, §3

For another series, the system named is H3255 (EGFR^L858R). In words: Cell proliferation assay (CTG, 72 h). Type of series: cell-based, human. Particulars: Homo sapiens, NCI-H3255; H3255 cells, 72 h; mean ± SD, n = 3. As for the experimental part: as §1, §2, §3
The subject of a further series is PC-9 (EGFR^d746–750). The series is described as follows: Cell proliferation assay (CTG, 72 h). Particulars: Homo sapiens; PC-9 cells, 72 h; mean ± SD, n = 3. Format: cell-based, human. On the procedure: as §1, §2, §3
A further series deals with NSCLC patients. Particulars: cited from earlier work.
The test system of series [3] is A431 (wild-type EGFR) tumor xenografts. The series is described as follows: A431 xenograft model. Type of series: in vivo, Nu/Nu nude mice. As to conditions: 30 mg/kg. On the procedure: The female Nu/Nu nude mice were purchased from Beijing Vital River Laboratories. […] Nu/Nu nude mice were purchased from the Beijing Vital River Laboratories of China. The 6–8 weeks old female mice were inoculated subcutaneously at the right flank with approximately 3–5 × 10^6 tumor cells in 0.2 ml of medium. The treatments were started when the tumor size reached approximately 200 mm^3. […] All mice were orally administrated once daily for consecutive 14 days. Mouse body weight, tumor weight and tumor volume (TV) were measured twice per week. TV was then used for the calculation of tumor inhibitory rate and tumor regression rate.

Where [4] appears, read: NSCLC patients with EGFR T790M mutation, ref Jänne et al., 2015, Mok et al., 2017.

The structures appear in SMILES notation. Where two headings read alike, the source gives them in different places.

As to `C=CC(=O)Nc1cc(Nc2nccc(-c3c[nH]c4ccccc34)n2)c(OC)cc1N(C)CCN(C)C` [AZ5104], the “fold more active on EGFR T790M than osimertinib” value with EGFR T790M is recorded as 8 fold. For the same compound, in series [1], the “metabolite level relative to the parent drug” value was “about 10%”.

Take `C=CC(=O)Nc1cc(Nc2nccc(-c3cn(C)c4ccccc34)n2)c(OC)cc1N(C)CCNC` [AZ7550]: in series [1], the “metabolite level relative to the parent drug” value was “about 10%”.

As for `C=CC(=O)Nc1cc(Nc2nccc(-c3cn(C)c4ccccc34)n2)c(OC)cc1N(C)CCN(C)C` [Osimertinib], the IC50 in the series with A431 (EGFR^WT) was found to be […]; in series [2], […]; in the series on H3255 (EGFR^L858R), 17.8 ± 0.5 nM; in the series with PC-9 (EGFR^d746–750) it was 14.2 ± 1.63 nM. Besides, the ORR in the series on NSCLC patients (setting [4]) is 70%; in the series with NSCLC patients (second-line, locally advanced or metastatic NSCLC progressed on prior EGFR TKI, ref Goss et al., 2016, Mok et al., 2017), 70%. For the same compound, the “median PFS” value in the series on NSCLC patients (setting [4]) is reported as 9.9 months. Also, in the series with NSCLC patients (advanced NSCLC patients with EGFR mutations, comparator 10.2 months, ref Soria et al., 2018, Ramalingam et al., 2020), the “efficacy compared to the first-line EGFR TKIs” value is recorded as 18.9 months. In the series on NSCLC patients (advanced NSCLC patients with EGFR mutations, comparator group 31.8 months, ref Soria et al., 2018, Ramalingam et al., 2020), the overall survival is listed as 38.6 months.

As for `CN(C)C/C=C/C(=O)Nc1cc2c(Nc3ccc(F)c(Cl)c3)ncnc2cc1O[C@H]1CCOC1` [afatinib, reference compound], the body weight result in series [3] is on record as “severe body loss”.
